# According to publication PMC10958501, “4-Oxypiperidine Ethers as Multiple Targeting Ligands at Histamine H3 Receptors and Cholinesterases” (ACS Chemical Neuroscience, 2024):
# Like-named read-outs stand apart in the source and are kept apart here.
# Columns and labels:
# H3R = test system: H3R; design: method as in PMID 29671795, PMID 23957330; settings: cited from earlier work
# eeAChE = target: T1, eeAChE (Electrophorus electricus, UniProt O42275); experiment: biochemical; settings: for inhibition at 10 µM: read-out: eeAChE % inh. (10μM) ± SD; for IC50: read-out: eeAChE IC50 (μM) ± sem
# T1 construct: purchased Sigma–Aldrich (Steinheim, Germany)
# hH3R [1] = target: T2, hH3R (Homo sapiens, UniProt Q9Y5N1); experiment: hH3R radioligand displacement assay in membrane fractions of HEK-293 cells; type: binding; settings: [3H]Nα-methylhistamine displacement, HEK-293 membranes; 95% CI in brackets
# T2 construct: expressed in transfected cells; membrane fractions
# Procedure: The compounds were tested against H3R by an ex vivo assay using isolated guinea pig ileum electrically stimulated to contraction, according to Vollinga et al.[47] The pA2-values were calculated according to Arunlakshana and Schild.[59] The radioligand-displacement assay was performed in membrane fractions of HEK-293 cells stably expressing hH3R. Cell cultivation and membrane preparation were performed according to Kottke et al.[48] The Ki values were calculated from the IC50 values using the Cheng–Prusoff equation.[60] The statistical calculations were performed on −log(Ki). The mean values and 95% confidence intervals were transformed to nanomolar concentrations. The inhibitory activities toward AChE and BuChE of novel ADS compounds were assessed in a spectrophotometric Ellman’s assay using electric eel AChE (eeAChE) and equine BuChE (eqBuChE).[57] Intracellular cAMP accumulation was measured with a homogeneous TR-FRET immunoassay using the LANCE Ultra cAMP kit (PerkinElmer) and HEK293 cells stably expressing the human histamine H3 receptor.[61] A more detailed description of the biological methods is presented in the Supporting Information. […]
# considered statistically significant. The pA2 values were compared with the affinity of thioperamide (Sigma-Aldrich, St. Louis, MO, USA).
# 3.2. hH 3R radioligand displacement binding assay.
# The radioligand displacement binding assay was performed in membrane fractions of HEK-293 cells stably expressing hH3R. Cell cultivation and membrane preparation was performed according to Kottke et al 6. For the radioligand displacement assay, radioactively labeled […]
# assay volume was set to 200 µL. The compounds were tested in several appropriate concentrations between 100 µM and 0.1 nM. Pipetting was partly done by Freedom Evo® (Tecan). Pitolisant was used to determine non-specific binding at a concentration of 10 µM.
# The membrane fraction (20 µg/well), test compounds, and radiolabeled ligand were incubated for 90 minutes at 25 °C while shaking. The bound radioligand was separated from the free radioligand by filtration through GF/B filters pre-treated with 0.3 % (m/v) polyethyleneimine using a cell harvester. Radioactivity was determined by liquid scintillation counting using a MicroBeta® Trilux (Perkin Elmer). The data was obtained in duplicates in at least three independent experiments. Non-specific binding was subtracted from the raw data to calculate specific binding values. The evaluation was performed with GraphPad Prism 6.1 (San Diego, CA, USA) using non-linear regression (one-site competition with a logarithmic scale). The Ki values were calculated from the IC50 values using the Cheng-Prusoff equation 7. The statistical calculations were performed on –log(Ki). […]
# eqBuChE = eqBuChE (Equus caballus, UniProt P81908); experiment: biochemical; settings: for inhibition at 10 µM: read-out: eqBuChE % inh. (10 μM) ± SD; for IC50: read-out: eqBuChE IC50 [μM] ± sem
# gpH3R = target: T3, gpH3R (Cavia porcellus, UniProt Q9JI35); experiment: Ex vivo gpH3R screening on isolated guinea pig ileum electrically stimulated to contraction
# T3 construct: isolated guinea pig ileum electrically stimulated to contraction; from tissue; host or cells: distal ileum of male guinea pigs
# Procedure: All newly synthesized compounds were evaluated ex vivo as H3R antagonists/inverse agonists on guinea pig ileum (gpH3R) stimulated electrically for contraction.[47]
# The compounds were tested against H3R by an ex vivo assay using isolated guinea pig ileum electrically stimulated to contraction, according to Vollinga et al.[47] The pA2-values were calculated according to Arunlakshana and Schild.[59] The radioligand-displacement assay was performed in membrane fractions of HEK-293 cells stably expressing hH3R. Cell cultivation and membrane preparation were performed according to Kottke et al.[48] The Ki values were calculated from the IC50 values using the Cheng–Prusoff equation.[60] The statistical calculations were performed on −log(Ki). […] The inhibitory activities toward AChE and BuChE of novel ADS compounds were assessed in a spectrophotometric Ellman’s assay using electric eel AChE (eeAChE) and equine BuChE (eqBuChE).[57] Intracellular cAMP accumulation was measured with a homogeneous TR-FRET immunoassay using the LANCE Ultra cAMP kit (PerkinElmer) and HEK293 cells stably expressing the human histamine H3 receptor.[61] A more detailed description of the biological methods is presented in the Supporting Information.
# 3. Pharmacological assay results.
# 3.1. Ex vivo assay for histamine H 3R receptor antagonists on guinea pig ileum.
# Male guinea pigs, weighing 300-400 g were euthanized by a blow to the neck. Following this, a 20-30 cm length of the distal ileum, apart from the terminal 5 cm was rapidly removed and […]
# USA) (1·10 -6 mol/L). The intraluminal content was rinsed and the isolated intestine was cut into 1.5-2 cm segments. The preparations were mounted between two platinum electrodes […]
# and indomethacin (3·10 -7 mol/L).
# CO2 mixture and maintained at 37 °C under a constant load of 1.0 g (Hugo Sachs Hebel-Messvorsatz (Tl-2)/HF-modem; Hugo Sachs Elektronik, Hugstetten, Germany) connected to a pen recorder (Kipp & Zonen BD41, Delft, Holland). During an equilibration period of 60 min, the Krebs buffer was changed every 10 min. The preparations were then continuously stimulated at 15-20 V at a frequency of 0.1 Hz for a duration of 0.5 ms, with rectangular-wave electrical pulses (Grass Stimulator S-88; Grass Instruments Co., Quincy, Massachusetts, […]
# USA). […] Five minutes before (R)-(−)-α- […]
# methylhistamine (RAMH) (Toronto Research Chemicals Inc., North York, Canada), administration, pyrilamine (Sigma-Aldrich, St. Louis, MO, USA) (1·10-5 mol/L concentration in organ bath) was added. The first cumulative concentration-response curve was determined […]
# second to fourth curve was measured against increasing antagonist concentration (incubation time 20 min). The pA2-values were calculated according to Arunlakshana and Schild 5.
# Statistical analysis was carried out with the Student’s t-test. In all tests, a p<0.05 was […]
# considered statistically significant. The pA2 values were compared with the affinity of thioperamide (Sigma-Aldrich, St. Louis, MO, USA). […]
# AChE = settings: cited from earlier work
# [2] = design: method as in PMID 29671795; settings: in vivo; cited from earlier work
# BuChE = test system: BuChE; design: method as in PMID 16599255; settings: cited from earlier work
# hH3R [3] = target: T2, hH3R; settings: cited from earlier work
# [4] = isolated guinea pig ileum, against (R)-(−)-α-methylhistamine, mean of at least three experiments, read-out: gpH3R pA2 ± sem (converted)
# T1 sequence (O42275 24-633): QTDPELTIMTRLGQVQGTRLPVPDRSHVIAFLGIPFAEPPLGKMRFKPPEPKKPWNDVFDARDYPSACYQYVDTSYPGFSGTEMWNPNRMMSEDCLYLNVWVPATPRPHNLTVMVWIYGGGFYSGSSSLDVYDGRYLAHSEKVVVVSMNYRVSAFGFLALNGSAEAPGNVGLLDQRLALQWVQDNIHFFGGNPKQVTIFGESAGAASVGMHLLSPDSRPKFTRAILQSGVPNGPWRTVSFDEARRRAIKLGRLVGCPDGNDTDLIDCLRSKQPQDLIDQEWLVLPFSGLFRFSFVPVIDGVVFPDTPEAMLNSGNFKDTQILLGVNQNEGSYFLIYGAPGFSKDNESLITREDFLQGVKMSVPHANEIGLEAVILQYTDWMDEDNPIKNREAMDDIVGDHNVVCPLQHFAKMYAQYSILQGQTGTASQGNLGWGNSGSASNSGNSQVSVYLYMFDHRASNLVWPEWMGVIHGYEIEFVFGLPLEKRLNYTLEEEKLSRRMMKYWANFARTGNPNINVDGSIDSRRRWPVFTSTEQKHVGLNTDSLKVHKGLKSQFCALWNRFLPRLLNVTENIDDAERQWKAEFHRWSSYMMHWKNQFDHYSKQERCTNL
# Chain of eqBuChE (P81908 whole entry): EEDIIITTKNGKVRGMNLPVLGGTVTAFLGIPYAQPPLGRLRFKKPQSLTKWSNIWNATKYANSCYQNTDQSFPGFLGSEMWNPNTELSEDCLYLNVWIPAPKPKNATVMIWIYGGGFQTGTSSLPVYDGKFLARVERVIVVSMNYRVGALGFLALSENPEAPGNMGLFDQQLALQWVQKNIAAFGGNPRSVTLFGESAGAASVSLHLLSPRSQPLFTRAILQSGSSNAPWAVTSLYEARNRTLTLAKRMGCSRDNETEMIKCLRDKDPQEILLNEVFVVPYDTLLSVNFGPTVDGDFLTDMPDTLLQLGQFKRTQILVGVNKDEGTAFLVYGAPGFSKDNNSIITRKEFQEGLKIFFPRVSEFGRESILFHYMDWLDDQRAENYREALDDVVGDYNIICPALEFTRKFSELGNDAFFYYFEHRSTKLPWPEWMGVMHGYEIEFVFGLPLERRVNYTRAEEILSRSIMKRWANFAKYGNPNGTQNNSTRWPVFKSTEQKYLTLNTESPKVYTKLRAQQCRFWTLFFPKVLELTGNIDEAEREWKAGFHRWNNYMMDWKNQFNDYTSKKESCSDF
# T2 sequence (Q9Y5N1 whole entry): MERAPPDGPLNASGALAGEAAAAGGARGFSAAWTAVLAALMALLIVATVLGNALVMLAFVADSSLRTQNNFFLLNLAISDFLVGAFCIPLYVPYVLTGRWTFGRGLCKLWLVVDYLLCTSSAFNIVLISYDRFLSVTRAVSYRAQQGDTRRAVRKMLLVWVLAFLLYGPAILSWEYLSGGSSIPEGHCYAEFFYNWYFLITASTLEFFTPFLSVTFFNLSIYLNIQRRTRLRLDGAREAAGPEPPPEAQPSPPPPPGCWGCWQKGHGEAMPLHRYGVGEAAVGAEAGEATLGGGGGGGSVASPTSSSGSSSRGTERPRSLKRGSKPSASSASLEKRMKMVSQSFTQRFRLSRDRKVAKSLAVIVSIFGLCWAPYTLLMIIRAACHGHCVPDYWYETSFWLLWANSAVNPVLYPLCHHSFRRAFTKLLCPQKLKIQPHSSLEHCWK
# T3 sequence (Q9JI35 whole entry): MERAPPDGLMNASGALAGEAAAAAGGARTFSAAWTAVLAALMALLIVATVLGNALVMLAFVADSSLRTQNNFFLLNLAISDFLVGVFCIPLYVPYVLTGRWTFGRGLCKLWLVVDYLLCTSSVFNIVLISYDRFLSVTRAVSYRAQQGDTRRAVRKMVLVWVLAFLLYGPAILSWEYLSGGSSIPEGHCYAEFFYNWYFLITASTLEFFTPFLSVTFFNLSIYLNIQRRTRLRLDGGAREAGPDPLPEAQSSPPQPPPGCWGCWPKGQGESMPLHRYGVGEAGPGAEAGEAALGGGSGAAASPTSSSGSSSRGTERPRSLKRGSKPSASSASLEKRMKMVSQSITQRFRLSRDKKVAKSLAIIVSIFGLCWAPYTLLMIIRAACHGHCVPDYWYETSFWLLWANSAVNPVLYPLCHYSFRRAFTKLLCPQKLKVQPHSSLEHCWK
SMILES,inhibition at 10 µM (eeAChE) [%],inhibition at 10 µM (eqBuChE) [%],Kb (gpH3R) [nM],IC50 (eqBuChE) [µM],also measured
S=C(NC1CCCCC1)N1CCC(c2cnc[nH]2)CC1 [Thioperamide],,,,,pA2 (H3R): 8.67
"CCCN(C)Cc1ccc(COC2CCN(Cc3cc4ccccc4o3)CC2)cc1 [ADS024, N-(4-(((1-(Benzofuran-2-ylmethyl)piperidin-4-yl)oxy)methyl)benzyl)-N-methylpropan-1-amine]",36.2 ± 3.6,32.2 ± 2.6,26.9,,Ki (hH3R [1]): 144 nM
"CCCN(C)Cc1ccccc1COC1CCN(Cc2cc3ccccc3o2)CC1 [ADS028, N-(2-(((1-(Benzofuran-2-ylmethyl)piperidin-4-yl)oxy)methyl)benzyl)-N-methylpropan-1-amine]",2.3 ± 0.3,79.6 ± 0.4,126,2.65 ± 0.055,
"CCCN(C)Cc1cccc(COC2CCN(Cc3ccccc3)CC2)c1 [ADS025, N-(3-(((1-Benzylpiperidin-4-yl)oxy)methyl)benzyl)-N-methylpropan-1-amine]",53.7 ± 1.9,63.9 ± 1.7,129,6.05 ± 0.16,IC50 (eeAChE): 9.94 ± 0.64 µM
c1cc(-c2ccc(CN3CCCCC3)cc2)ccc1CCN1CCCCC1 [I],,,,,IC50 (AChE): 1100 nM
"CCCN(C)c1ccc(OC2CCN(Cc3ccccc3)CC2)cc1 [ADS021, 4-((1-Benzylpiperidin-4-yl)oxy)-N-methyl-N-propylaniline]",33.4 ± 1.1,95.88 ± 0.2,> 100000,0.559 ± 0.125,
"CCCN(C)CCCCCOC1CCN(Cc2ccccc2)CC1 [ADS009, 5-((1-benzylpiperidin-4-yl)oxy)-N-methyl-N-propylpentan-1-amine]",,,,,pA2 (H3R): 7.79
"CCCN(C)c1ccc(OC2CCN(Cc3cc4ccccc4o3)CC2)cc1 [ADS023, 4-((1-(Benzofuran-2-ylmethyl)piperidin-4-yl)oxy)-N-methyl-N-propylaniline]",40.3 ± 2.8,43.2 ± 2.1,,,Kb (gpH3R; [4]): > 100000 nM
"CCCN(C)CCCCCOC1CCN(Cc2cc3ccccc3o2)CC1 [ADS003, 5-((1-(benzofuran-2-ylmethyl)piperidin-4-yl)oxy)-N-methyl-N-propylpentan-1-amine]",,,,,pA2 (H3R): 8.47; blood–brain barrier crossing [2]: ability to cross the blood–brain barrier
"CCCN(C)Cc1ccc(-c2ccc(COC3CCN(Cc4cc5ccccc5o4)CC3)cc2)cc1 [ADS030, N-((4′-(((1-(Benzofuran-2-ylmethyl)piperidin-4-yl)oxy)methyl)-[1,1′-biphenyl]-4-yl)methyl)-N-methylpropan-1-amine]",31.2 ± 0.5,83.1 ± 0.4,257,1.75 ± 0.077,
"CCCN(C)Cc1ccc(-c2ccc(COC3CCN(Cc4ccccc4)CC3)cc2)cc1 [ADS029, N-((4′-(((1-Benzylpiperidin-4-yl)oxy)methyl)-[1,1′-biphenyl]-4-yl)methyl)-N-methylpropan-1-amine]",69 ± 0.5,90.8 ± 0.3,61.7,1.4 ± 0.055,IC50 (eeAChE): 3.71 ± 0.134 µM
"CCCN(C)Cc1ccc2cc(COC3CCN(Cc4cc5ccccc5o4)CC3)ccc2c1 [ADS032, N-((6-(((1-(Benzofuran-2-ylmethyl)piperidin-4-yl)oxy)methyl)naphthalen-2-yl)methyl)-N-methylpropan-1-amine]",28.1 ± 3.9,90.3 ± 0.1,87.1,1.64 ± 0.074,Ki (hH3R [1]): 44.1 nM
c1ccc2c(NCc3ccc(CCCN4CCCCC4)cc3)c3c(nc2c1)CCCC3 [III],,,,,IC50 (BuChE): 8.8 nM; Ki (hH3R [3]): 0.3 nM; IC50 (AChE): 2.6 nM
"CCCN(C)Cc1ccc(COC2CCN(Cc3ccccc3)CC2)cc1 [ADS022, N-(4-(((1-Benzylpiperidin-4-yl)oxy)methyl)benzyl)-N-methylpropan-1-amine]",61.6 ± 2.8,49.4 ± 1.9,38,,IC50 (eeAChE): 6.89 ± 0.271 µM; Ki (hH3R [1]): 77.1 nM
"CCCN(C)Cc1ccccc1COC1CCN(Cc2ccccc2)CC1 [ADS027, N-(2-(((1-Benzylpiperidin-4-yl)oxy)methyl)benzyl)-N-methylpropan-1-amine]",4.8 ± 0.3,64.6 ± 0.9,151,4.31 ± 0.202,
"CCCN(C)Cc1cccc(COC2CCN(Cc3cc4ccccc4o3)CC2)c1 [ADS026, N-(3-(((1-(Benzofuran-2-ylmethyl)piperidin-4-yl)oxy)methyl)benzyl)-N-methylpropan-1-amine]",5.5 ± 0.6,55.9 ± 2,,,Kb (gpH3R; [4]): 93.3 nM
